Assays:
[1] = system: Phytophthora infestans (PHYTIN); test: microbe, parasite or virus in culture; assay type: cell-based; conditions: Phytophthora infestans, read-out: PHYTIN in vitro Growth Inhibition
[2] = system: Leptosphaeria nodorum—LEPTNO; test: Glume Blotch of Wheat, in vivo whole plant, 24 Hour Protectant; conditions: 100 ppm spray, 24 hour protectant, wheat, control of fungal infection vs untreated plants; for pest or weed control at 100 ppm: Leptosphaeria, read-out: LEPTNO in vivo 1 Day Protectant
[3] = system: Mycosphaerella graminicola (Septoria tritici—SEPTTR); test: In vitro fungal growth inhibition, Mycosphaerella graminicola (SEPTTR); assay type: cell-based; conditions: Zymoseptoria tritici; 25 ppm in growth medium; read-out: SEPTTR in vitro Growth Inhibition
Ustilago maydis (USTIMA) = test: microbe, parasite or virus in culture; assay type: cell-based; conditions: Mycosarcoma maydis, read-out: USTIMA in vitro Growth Inhibition
Septoria tritici—SEPTTR = test: Leaf Blotch of Wheat, in vivo whole plant, 24 Hour Protectant; conditions: 100 ppm spray, 24 hour protectant, wheat, control of fungal infection vs untreated plants; for pest or weed control at 100 ppm: Zymoseptoria tritici, 24 h, read-out: SEPTTR in vivo 1 Day Protectant
[4] = system: Phytophthora infestans—PHYTIN; test: whole plant or invertebrate; assay type: in vivo; conditions: Phytophthora, in Solanum lycopersicum, 24 h, read-out: PHYTIN in vivo 1 Day Protectant
[5] = system: Magnaporthe grisea (Pyricularia oryzae—PYRIOR); test: microbe, parasite or virus in culture; assay type: cell-based; conditions: Pyricularia oryzae, read-out: PYRIOR in vitro Growth Inhibition
[6] = system: Puccinia recondita—PUCCRT; test: Brown Rust of Wheat, in vivo whole plant, 24 Hour Protectant; conditions: 100 ppm spray, 24 hour protectant, wheat, control of fungal infection vs untreated plants; for pest or weed control at 100 ppm: Puccinia, read-out: PUCCRT in vivo 1 Day Protectant
[7] = system: Stagonospora nodorum (Leptosphaeria nodorum—LEPTNO); test: In vitro fungal growth inhibition, Stagonospora nodorum (LEPTNO); assay type: cell-based; conditions: Leptosphaeria; 25 ppm in growth medium; read-out: LEPTNO in vitro Growth Inhibition
Erysiphe graminis—ERYSGT = test: Powdery Mildew of Wheat, in vivo whole plant, 24 Hour Protectant; conditions: Erysiphe; 100 ppm spray, 24 hour protectant, wheat; control of fungal infection vs untreated plants; read-out: ERYSGT in vivo 1 Day Protectant
[8] = system: Rhizoctonia solani (RHIZSO); test: microbe, parasite or virus in culture; assay type: cell-based; conditions: Rhizoctonia solani, read-out: RHIZSO in vitro Growth Inhibition

| Structure (SMILES) | inhibition at 25 ppm [1] [%] | pest or weed control at 100 ppm [2] [%] | inhibition at 25 ppm [3] [%] | inhibition at 25 ppm (Ustilago maydis (USTIMA)) [%] | SEPTTR in vivo 1 Day Protectant (Septoria tritici—SEPTTR) | pest or weed control at 100 ppm [4] [%] | inhibition at 25 ppm [5] [%] | pest or weed control at 100 ppm [6] [%] | inhibition at 25 ppm [7] [%] | pest or weed control at 100 ppm (Erysiphe graminis—ERYSGT) [%] | inhibition at 25 ppm [8] [%] | pest or weed control at 100 ppm (Septoria tritici—SEPTTR) [%] | LEPTNO in vivo 1 Day Protectant [2] | PUCCRT in vivo 1 Day Protectant [6] |
| --- | --- | --- | --- | --- | --- | --- | --- | --- | --- | --- | --- | --- | --- | --- |
| COc1ccnc(C(=O)NC2CC(C)(C)CCCC2C)c1O (centres unmarked) [Compound 277] | < 80 | 25 to 74 | > 80 | < 80 | + + | < 25 | < 80 | < 25 | > 80 | < 25 | < 80 | – | – | – |
| COc1ccnc(C(=O)NC2CC(C)(C)C=CC=C2C)c1O (centres unmarked) [Compound 278] | < 80 | 25 to 74 | < 80 | < 80 | – | < 25 | < 80 | 25 to 74 | < 80 | < 25 | < 80 | 25 to 74 | – | – |
| COc1ccnc(C(=O)NC2CC(C)(C)C=CC(C)C2C)c1O (centres unmarked) [Compound 279] | > 80 | 25 to 74 | > 80 | < 80 | – | 25 to 74 | < 80 | < 25 | > 80 | 25 to 74 | < 80 | 25 to 74 | – | – |
| COc1ccnc(C(=O)NC2CC(C)(C)C3OC3[C@H](C)[C@H]2C)c1O (some centres unmarked) [Compound 280] | < 80 | 25 to 74 | < 80 | < 80 | – | 25 to 74 | < 80 | 25 to 74 | < 80 | < 25 | < 80 | 25 to 74 | – | – |
| COc1ccnc(C(=O)NC2CC(C)(C)C(Cl)C(Cl)[C@H](C)[C@H]2C)c1O (some centres unmarked) [Compound 281] | > 80 | 25 to 74 | < 80 | < 80 | – | 25 to 74 | > 80 | 25 to 74 | < 80 | 25 to 74 | < 80 | 25 to 74 | – | – |
| COc1ccnc(C(=O)NC2CCCCCCC2)c1O [Compound 282] | < 80 | 25 to 74 | < 80 | < 80 | – | < 25 | < 80 | 25 to 74 | < 80 | < 25 | < 80 | 25 to 74 | – | – |
| COc1ccnc(C(=O)NC2CC(C)(C)/C=C\CC(C)(C)C2)c1O (centres unmarked) [Compound 283] | < 80 | 25 to 74 | < 80 | < 80 | + + | < 25 | < 80 | 25 to 74 | < 80 | < 25 | < 80 | – | – | – |
| COc1ccnc(C(=O)NC2CC3CCC2C3)c1O (centres unmarked) [Compound 287] | < 80 | 25 to 74 | < 80 | < 80 | – | < 25 | < 80 | 25 to 74 | < 80 | < 25 | > 80 | 25 to 74 | – | – |
| COc1ccnc(C(=O)NC2C3(C)CCC(C3)C2(C)C)c1O (centres unmarked) [Compound 288] | < 80 | 25 to 74 | < 80 | < 80 | – | < 25 | < 80 | < 25 | < 80 | < 25 | > 80 | 25 to 74 | – | – |
| COc1ccnc(C(=O)N[C@@H]2CC3CC2c2ccccc23)c1O (some centres unmarked) [Compound 290] | < 80 | – | > 80 | < 80 | – | < 25 | > 80 | – | > 80 | 25 to 74 | > 80 | 25 to 74 | + + | + + |
| COc1ccnc(C(=O)N[C@H]2CC3CC2[C@@H](COCc2cccc(C(F)(F)F)c2)C3)c1O (some centres unmarked) [Compound 295] | < 80 | 25 to 74 | > 80 | < 80 | + + | < 25 | > 80 | 25 to 74 | > 80 | < 25 | > 80 | – | – | – |
| COc1ccnc(C(=O)N[C@@H]2CC3CC2C[C@@H]3COCc2cccc(C(F)(F)F)c2)c1O (some centres unmarked) [Compound 297] | < 80 | 25 to 74 | > 80 | < 80 | – | < 25 | > 80 | < 25 | > 80 | < 25 | > 80 | 25 to 74 | – | – |
| COc1ccnc(C(=O)N[C@@H]2CC3CC2[C@H]2COC[C@@H]32)c1O (some centres unmarked) [Compound 302] | < 80 | 25 to 74 | < 80 | < 80 | – | < 25 | < 80 | < 25 | < 80 | < 25 | < 80 | 25 to 74 | – | – |
| COc1ccnc(C(=O)N[C@@H]2CC3CC2C2C(=O)N(CC(C)C)C(=O)C32)c1O (some centres unmarked) [Compound 303] | < 80 | 25 to 74 | < 80 | < 80 | – | 25 to 74 | < 80 | < 25 | < 80 | < 25 | < 80 | 25 to 74 | – | – |
| COc1ccnc(C(=O)NC2C3CC4C(C3Cl)C42)c1O (centres unmarked) [Compound 304] | < 80 | 25 to 74 | < 80 | < 80 | + + | < 25 | < 80 | < 25 | < 80 | < 25 | > 80 | – | – | – |
| COc1ccnc(C(=O)NC2CCN(C(=O)CCc3ccccc3)CC2)c1O [Compound 309] | < 80 | 25 to 74 | < 80 | < 80 | – | < 25 | < 80 | < 25 | < 80 | 25 to 74 | < 80 | < 25 | – | – |
